Data taken from patent publication US20260256934A1, “ANTIBODY-DRUG CONJUGATE INCLUDING MUTANT Fc REGION” (DAIICHI SANKYO COMPANY, LIMITED, priority 2022, published 2026).

What was measured:
[1] = biological target: T1, human wild-type (Hu-WT) STING C-terminal binding domain protein (Homo sapiens, UniProt Q86WV6, H232R); experiment: Thermal shift assay with recombinant STING C-terminal binding domain protein (Hu-WT); conditions: test compound 0.5 mM; Tm minus Tm of well without compound
T1 construct: made in house; host or cells: E. coli Rosetta 2 (DE3), co-expressed with BirA
T1 sequence (Q86WV6 with tags, fused parts or gaps H232R): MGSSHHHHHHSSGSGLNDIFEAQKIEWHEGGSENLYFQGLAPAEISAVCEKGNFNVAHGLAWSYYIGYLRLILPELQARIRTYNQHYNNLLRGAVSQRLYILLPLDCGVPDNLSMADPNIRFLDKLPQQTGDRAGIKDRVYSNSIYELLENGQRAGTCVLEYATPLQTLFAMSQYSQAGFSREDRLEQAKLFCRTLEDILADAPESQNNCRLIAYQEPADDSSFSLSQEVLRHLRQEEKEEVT
Experimental: (§1) Each expression strain was added to TB broth containing 100 μg/mL ampicillin, 50 μg/mL streptomycin, and 30 μg/mL kanamycin, and cultured at 37° C. Expression was then induced with 100 µM IPTG, and the cells were further cultured at 16° C.
(§2) The culture broth was centrifuged, and the obtained bacteria were frozen and thawed. The proteins were extracted by sonication, and the supernatant was collected by centrifugation. The resulting supernatant was purified through a HisTrap FF column (GE Healthcare) using an AKTAexpress chromatography system (GE Healthcare, IL, US), made to pass through a Superdex200 16/60 column (GE Healthcare), and eluted.
(§3) The binding of a compound to each STING C-terminal binding domain protein was determined by a thermal shift assay, which uses the increase in the thermal denaturation temperature of the protein as an indicator.
(§4) Specifically, each test compound (final concentration 0.5 mM), SYPRO Orange (final concentration: 20×concentration), and the STING protein were mixed in a 384-well real-time PCR plate using a plate shaker. […] Tm (the midpoint of the unfolding transition) (° C.) was determined as the temperature at which the rate of increase in fluorescence intensity reached its maximum value. The shift of Tm by the test compound was calculated as ΔTm (° C.) by subtracting, from the Tm value of each compound, the Tm value of the well without the compound.

[2] = biological target: T2, human REF mutant (Hu-REF) STING C-terminal binding domain protein (Homo sapiens, UniProt Q86WV6); experiment: Thermal shift assay with recombinant STING C-terminal binding domain protein (Hu-REF); conditions: test compound 0.5 mM; Tm minus Tm of well without compound
T2 construct: made in house; host or cells: E. coli Rosetta 2 (DE3), co-expressed with BirA
T2 sequence (Q86WV6 with tags, fused parts or gaps, change not shown): as the sequence (Q86WV6 with tags, fused parts or gaps H232R) above, with R133H counted along it
Experimental: as §1, §2, §3, §4

[3] = biological target: T3, mouse wild type (Ms-WT) STING C-terminal binding domain protein (Mus musculus, UniProt Q3TBT3); experiment: Thermal shift assay with recombinant STING C-terminal binding domain protein (Ms-WT); conditions: test compound 0.5 mM; Tm minus Tm of well without compound
T3 construct: made in house; host or cells: E. coli Rosetta 2 (DE3), co-expressed with BirA
T3 sequence (Q3TBT3 with tags, fused parts or gaps): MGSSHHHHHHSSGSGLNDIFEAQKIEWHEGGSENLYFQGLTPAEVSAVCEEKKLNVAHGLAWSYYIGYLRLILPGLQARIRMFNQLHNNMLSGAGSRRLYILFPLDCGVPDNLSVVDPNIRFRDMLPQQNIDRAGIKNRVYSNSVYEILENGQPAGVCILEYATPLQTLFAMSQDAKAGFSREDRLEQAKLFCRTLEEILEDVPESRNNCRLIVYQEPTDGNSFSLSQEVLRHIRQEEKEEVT
Experimental: as §1, §2, §3
Specifically, each test compound (final concentration 0.5 mM), SYPRO Orange (final concentration: 20×concentration), and the STING protein were mixed in a 384-well real-time PCR plate using a plate shaker. A real-time PCR system was used to increase the temperature from 25° C. to 95° C. at a rate of 0.03° C. per second, and the thermal denaturation temperature of the protein was measured using the fluorescence emitted by SYPRO Orange as an indicator. Tm (the midpoint of the unfolding transition) (° C.) was determined as the temperature at which the rate of increase in fluorescence intensity reached its maximum value. The shift of Tm by the test compound was calculated as ΔTm (° C.) by subtracting, from the Tm value of each compound, the Tm value of the well without the compound.

[4] = biological target: T4, human AQ mutant (Hu-AQ) STING C-terminal binding domain protein (Homo sapiens, UniProt Q86WV6, G230A/H232R/R293Q); experiment: Thermal shift assay with recombinant STING C-terminal binding domain protein (Hu-AQ); conditions: test compound 0.5 mM; Tm minus Tm of well without compound
T4 construct: made in house; host or cells: E. coli Rosetta 2 (DE3), co-expressed with BirA
T4 sequence (Q86WV6 with tags, fused parts or gaps G230A/H232R/R293Q): as the sequence (Q86WV6 with tags, fused parts or gaps H232R) above, with G131A, R194Q counted along it
Experimental: as §1, §2, §3, §4

human FcγRIIIb = biological target: T5, human FcγRIIIb (Homo sapiens, UniProt O75015); experiment: Human FcγRIIIb binding activity by SPR; conditions: anti-EGFR antibodies as analyte, 0.9-4.7 μM
T5 construct: purchased R&D systems
T5 sequence (O75015 17-200): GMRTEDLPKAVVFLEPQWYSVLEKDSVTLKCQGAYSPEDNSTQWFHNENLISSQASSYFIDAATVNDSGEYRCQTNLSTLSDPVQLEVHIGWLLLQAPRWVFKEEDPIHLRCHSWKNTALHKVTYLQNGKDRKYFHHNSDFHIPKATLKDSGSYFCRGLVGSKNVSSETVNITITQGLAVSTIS
Experimental: (§5) The binding activity was determined by directly immobilizing human FcγR as a ligand onto a sensor chip, then adding each anti-EGFR antibody as an analyte to the sensor chip, and measuring the interaction between the ligand and the analyte by SPR. Recombinant Human Fc gammaRIIA/CD32a (R167) Protein (R&D systems) was immobilized as human FcγRIIa onto Sensor Chip CM5 according to the instructions of the kit. Then, the anti-EGFR antibody prepared at each concentration with HBS-EP+ was added to the sensor chip for 120 sec at a flow rate of 30 μL/min.
Recombinant Human Fc gamma RIIIB/CD16b Protein (R&D systems) was used as human FcγRIIIb.

human FcγRI = biological target: T6, human FcγRI (Homo sapiens, UniProt P12314); experiment: Human FcγRI binding activity by SPR (Biacore T200); conditions: anti-EGFR antibodies as analyte, 0.3-4.7 μM; His-tagged FcγRI captured
T6 construct: purchased R&D systems
T6 sequence (P12314 16-374): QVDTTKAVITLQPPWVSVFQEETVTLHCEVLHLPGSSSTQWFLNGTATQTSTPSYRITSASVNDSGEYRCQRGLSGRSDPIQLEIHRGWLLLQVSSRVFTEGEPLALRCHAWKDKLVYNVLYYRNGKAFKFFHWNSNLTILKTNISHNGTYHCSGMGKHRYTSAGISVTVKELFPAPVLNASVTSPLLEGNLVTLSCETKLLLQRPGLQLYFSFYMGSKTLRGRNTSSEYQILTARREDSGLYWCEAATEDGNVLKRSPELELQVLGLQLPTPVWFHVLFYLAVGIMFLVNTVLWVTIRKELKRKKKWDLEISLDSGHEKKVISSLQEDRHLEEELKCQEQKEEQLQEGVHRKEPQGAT
Experimental: Anti-EGFR antibodies with various introduced effector-less mutations were evaluated for their binding activity against human FcγRI using Biacore T200 (Cytiva). […] The anti-EGFR antibody B used in the Test Example was obtained as HBS-EP+ solution by subjecting commercially available Vectibix Intravenous Infusion (Takeda Pharmaceuticals) (100 mg/5 mL) to buffer exchange using Amicon Ultra-15 Centrifugal Filter Unit (50K, produced by Merck). The binding activity was determined by allowing His-tagged human FcγRI to be captured as a ligand onto an anti-His antibody-immobilized sensor chip, then adding each anti-EGFR antibody as an analyte to the sensor chip, and measuring the interaction between the ligand and the analyte by Surface Plasmon Resonance (SPR). Anti-6× His tag antibody [AD1.1.10] (abcam) was immobilized onto Sensor Chip CM5 (Cytiva) according to the instructions of the kit. Recombinant Human Fc gamma RI/CD64 Protein (R&D systems) prepared at 10 μg/mL with HBS-EP+(GE Healthcare) was contacted with the sensor chip for 60 sec at 10 μL/min and thereby captured. Then, the anti-EGFR antibody prepared at each concentration with HBS-EP+ was added to the sensor chip for 120 sec at a flow rate of 30 μL/min.

human FcγRIIb/c = biological target: T7, human FcγRIIb/c (Homo sapiens, UniProt P31994); experiment: Human FcγRIIb/c binding activity by SPR; conditions: anti-EGFR antibodies as analyte, 0.9-4.7 μM
T7 construct: purchased R&D systems
T7 sequence (P31994 43-310): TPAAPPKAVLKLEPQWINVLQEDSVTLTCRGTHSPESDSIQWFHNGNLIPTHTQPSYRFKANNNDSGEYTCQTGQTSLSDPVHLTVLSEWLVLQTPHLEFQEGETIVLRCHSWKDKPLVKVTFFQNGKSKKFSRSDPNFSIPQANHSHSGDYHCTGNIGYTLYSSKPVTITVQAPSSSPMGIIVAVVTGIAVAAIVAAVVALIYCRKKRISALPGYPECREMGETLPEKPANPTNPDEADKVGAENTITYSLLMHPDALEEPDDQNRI
Experimental: as §5
Recombinant Human Fc gamma RIIB/C (CD32b/c) Protein (R&D systems) was used as human FcγRIIb/c.

human FcγRIIIa = biological target: T8, human FcγRIIIa (Homo sapiens, UniProt P08637); experiment: Human FcγRIIIa binding activity by SPR; conditions: anti-EGFR antibodies as analyte, 0.9-4.7 μM
T8 construct: purchased R&D systems
T8 sequence (P08637 17-254): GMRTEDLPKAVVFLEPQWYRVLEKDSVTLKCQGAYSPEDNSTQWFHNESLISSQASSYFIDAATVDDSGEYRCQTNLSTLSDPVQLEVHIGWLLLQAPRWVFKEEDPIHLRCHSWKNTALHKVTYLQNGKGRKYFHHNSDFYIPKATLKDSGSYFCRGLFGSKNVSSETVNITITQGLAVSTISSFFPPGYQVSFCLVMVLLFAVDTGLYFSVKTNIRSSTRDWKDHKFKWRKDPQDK
Experimental: as §5
Recombinant Human Fc gamma RIIIA/CD16a protein (R&D systems) was used as human FcγRIIIa.

O=c1c2ncn([C@@H]3O[C@@H]4COP(=O)(S)O[C@H]5[C@@H](F)[C@H](n6cc7c8c(ncnc86)SCCC7)O[C@@H]5COP(=O)(S)O[C@@H]3[C@@H]4O)c2ncn1CCO (single isomer, unassigned) [Compound 48b]
ΔTm (° C.) Hu-WT [1]: 14.0 °C | ΔTm (° C.) Hu-REF [2]: 7.3 °C | ΔTm (° C.) Ms-WT [3]: 15.8 °C | ΔTm (° C.) Hu-AQ [4]: 17.8 °C

O=c1c2ncn([C@@H]3O[C@@H]4COP(=O)(S)O[C@H]5[C@@H](O)[C@H](n6cc7c8c(ncnc86)NCCC7)O[C@@H]5COP(=O)(S)O[C@@H]3[C@@H]4O)c2ncn1CCO (single isomer, unassigned) [Compound 6b]
ΔTm (° C.) Hu-WT [1]: 8.4 °C | ΔTm (° C.) Hu-REF [2]: 3.4 °C | ΔTm (° C.) Ms-WT [3]: 12.9 °C | ΔTm (° C.) Hu-AQ [4]: 11.3 °C

O=c1c2ncn([C@@H]3O[C@@H]4COP(=O)(S)O[C@H]5[C@@H](F)[C@H](n6cc7c8c(ncnc86)NCCC7)O[C@@H]5COP(=O)(S)O[C@@H]3[C@@H]4O)c2ncn1CCO (single isomer, unassigned) [Compound 34b]
ΔTm (° C.) Hu-WT [1]: 12.0 °C | ΔTm (° C.) Hu-REF [2]: 6.5 °C | ΔTm (° C.) Ms-WT [3]: 16.7 °C | ΔTm (° C.) Hu-AQ [4]: 14.0 °C

O=c1c2ncn([C@@H]3O[C@@H]4COP(=O)(O)O[C@H]5[C@@H](F)[C@H](n6cc7c8c(ncnc86)NCCC7)O[C@@H]5COP(=O)(S)O[C@@H]3[C@@H]4O)c2ncn1CCO (single isomer, unassigned) [Compound 52b]
ΔTm (° C.) Hu-WT [1]: 9.2 °C | ΔTm (° C.) Hu-REF [2]: 4.4 °C | ΔTm (° C.) Ms-WT [3]: 12.3 °C | ΔTm (° C.) Hu-AQ [4]: 10.8 °C

O=c1c2ncn([C@@H]3O[C@@H]4COP(=O)(S)O[C@H]5[C@@H](F)[C@H](n6cc7c8c(ncnc86)NCCC7)O[C@@H]5COP(=O)(S)O[C@@H]3[C@@H]4F)c2ncn1CCO (single isomer, unassigned) [Compound 44b]
ΔTm (° C.) Hu-WT [1]: 11.4 °C | ΔTm (° C.) Hu-REF [2]: 6.2 °C | ΔTm (° C.) Ms-WT [3]: 17.0 °C | ΔTm (° C.) Hu-AQ [4]: 14.3 °C

IgG2: IgG2-type anti-EGFR antibody, commercially available Vectibix Intravenous Infusion; heavy chain SEQ ID NO: 35
RU value indicating binding to human FcγRIIIb (rank order) (human FcγRIIIb): IgG1 WT>LALA≈IgG2≈LALA-DG | RU value indicating binding to human FcγRI (rank order) (human FcγRI): IgG1 WT>>LALA>>IgG2>LALA-DG | RU value indicating binding to human FcγRIIb/c (rank order) (human FcγRIIb/c): IgG1 WT>IgG2>LALA>LALA-DG | RU value indicating binding to human FcγRIIIa (rank order) (human FcγRIIIa): IgG1 WT>LALA>IgG2>LALA-DG

O=c1c2ncn([C@@H]3O[C@@H]4COP(=O)(S)O[C@H]5[C@@H](O)[C@H](n6cc7c8c(ncnc86)NCCC7)O[C@@H]5COP(=O)(S)O[C@@H]3[C@@H]4F)c2ncn1CCO (single isomer, unassigned) [Compound 39b]
ΔTm at 500 µM [1]: 8.9 °C | ΔTm at 500 µM [2]: 3.7 °C | ΔTm at 500 µM [3]: 13.1 °C | ΔTm at 500 µM [4]: 10.5 °C
